Experimental data reported in patent publication EP1049703B1, “N-[2-(5-BENZYLOXYCARBONYL-AMINO-6-OXO-2-(4-FLUOROPHENYL)-1,6-DIHYDRO-1-PYRIMIDINYL)ACETOXYL]-L-ASPARTIC ACID ALDEHYDE AS AN IN VIVO INHIBITOR OF INTERLEUKIN-1BETA CONVERTING ENZYME” (WARNER-LAMBERT COMPANY, priority 1998, dated 1999).

What was measured:
[1] = biological target: T1, Ich-2 (Caspase 4) (Homo sapiens, UniProt P49662); experiment: Ich-2 colorimetric dose-response (IC50) assay; type: biochemical; conditions: enzyme 64 nM, 60 µM Ac-Leu-Glu-Val-Asp-pNA
T1 sequence (P49662 81-270 limits assumed): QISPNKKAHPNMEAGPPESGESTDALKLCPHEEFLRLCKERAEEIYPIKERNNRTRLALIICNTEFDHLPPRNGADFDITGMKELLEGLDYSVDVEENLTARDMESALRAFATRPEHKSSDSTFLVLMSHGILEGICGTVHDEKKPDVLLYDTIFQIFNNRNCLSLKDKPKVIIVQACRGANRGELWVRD
T1 sequence (P49662 290-377 limits assumed): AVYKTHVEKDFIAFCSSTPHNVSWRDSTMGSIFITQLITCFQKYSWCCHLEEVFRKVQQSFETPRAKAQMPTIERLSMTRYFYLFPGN
Procedure: Inhibition of Ich-2 (Caspase 4) enzyme is assayed as described above for ICE, except that enzyme is used at 64 nM, and 60 µM of the Ich-2-specific substrate Ac-Leu-Glu-Val-Asp-pNA is used instead of the ICE substrate Ac-Tyr-Val-Ala-Asp-pNA.

[2] = biological target: T2, ICE (Homo sapiens, UniProt P29466); experiment: ICE inhibition studies (fluorogenic substrate Ac-Tyr-Val-Ala-Asp-AMC, Ki); type: biochemical
T2 sequence (P29466 120-297 limits assumed): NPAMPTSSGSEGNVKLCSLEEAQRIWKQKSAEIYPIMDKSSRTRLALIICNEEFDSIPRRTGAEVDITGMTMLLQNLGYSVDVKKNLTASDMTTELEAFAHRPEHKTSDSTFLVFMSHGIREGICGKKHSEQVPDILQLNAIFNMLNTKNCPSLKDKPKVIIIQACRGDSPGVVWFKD
T2 sequence (P29466 317-404 limits assumed): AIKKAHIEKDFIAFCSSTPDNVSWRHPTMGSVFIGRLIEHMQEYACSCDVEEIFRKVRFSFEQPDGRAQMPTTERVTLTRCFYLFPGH
Procedure: ICE (0.24 nM final concentration) is added to 400 µL of HGDE buffer (100 mM HEPES, 20% glycerol, 5 mM DTT, 0.5 mM EDTA) containing 15 µM substrate (Ac-Tyr-Val-Ala-Asp-AMC; KM = 15 µM) plus vehicle (DMSO) or inhibitor at concentrations bracketing the Ki. Substrate hydrolysis is monitored for 300 seconds by observing the fluorescence of released AMC using excitation at 380 nm and emission at 460 nm. Mean rates of substrate hydrolysis are evaluated by linear-regression analysis of the fluorescence vs time traces. To evaluate Ki, plots of percent inhibition vs inhibitor concentration are fit by non-linear regression to a reversible, competitive model: [formula] where the competition factor (1 + [S]/KM) = 2.

[3] = test system: IL-1β production in human peripheral blood mononuclear cells (PBMCs); experiment: PBMC cellular assay: LPS-stimulated IL-1β production (ELISA); type: cell-based; conditions: PBMCs stimulated overnight with 10 ng/mL LPS, concentration which reduces IL-1β levels by 50%, read-out: 3. PBMC IC50
Excerpt: Further evidence that compound 1 is a potent inhibitor of ICE is provided by its ability to inhibit IL-1β production in human peripheral blood mononuclear cells (PBMCs) as described herein. PBMCs are isolated from heparinized blood by centrifugation over a ficoll cushion, then washed three times with phosphate-buffered saline. PBMCs are suspended in a medium containing RPMI 1640 with glutamine, penicillin, streptomycin, and 2% human AB serum, then plated at 10^6 cells per well in 96 well flat bottom plates. PBMCs are stimulated overnight with 10 ng/mL of lipopolysaccharide (LPS, E. Coli strain 0111:B4; Calbiochem) in the presence or absence of compound 1 or 2. Medium is harvested, and the level of mature IL-1β was determined using an ELISA kit from R & D Systems. Compound inhibition is assessed by determining the concentration of agent which reduces IL-1β levels by 50%. Cells were cultured for an additional 4 hours in the presence of 3-(4, 5-dimethylthiazol-2-yl)-2, 5-diphenyltetrazolium bromide (MTT) to determine viability. Compound toxicity can, therefore, be assessed by determining the concentration of agent which kills 50% of the cells (IC50).

[4] = test system: excitotoxic brain damage; experiment: Excitotoxic brain damage in neonatal rats; type: in vivo, Seven-day-old rat pups; conditions: for % Loss (percent loss of hemisphere weight): 30 mg/kg intraperitoneal 0.25 hours after 15 nMoles of MDA into right caudate nucleus, five days later; for extent of exitotoxic brain damage in rat pups (result in words): summary statement
Procedure: Compound 1 and compound 2 are tested in a model of excitotoxic brain damage in neonatal rats. Seven-day-old rat pups are anesthetized with ether, placed in a head holder and injected with 15 nMoles of MDA into the right caudate nucleus. The pups are treated by intraperitoneal injection with drug (30 mg/kg) or vehicle (0.2% methocel in water) 0.25 hours later and then returned to their home cage. Five days following this excitotoxic challenge, the pups are sacrificed, their brains removed and hemispheres weighed. The loss in weight of the injected hemisphere relative to the contralateral hemisphere is an estimate of the degree of brain necrosis. […] Importantly, such protection is not seen at the same dose of compound 2.

[5] = test system: IL-1β production; experiment: Mouse model: LPS-induced plasma IL-1β production; type: in vivo, Female C57BL/6 mice; conditions: for inhibition of IL-1β production: 5 mg/kg LPS i.v. at T0, compound i.v. at 3.75 hours, plasma at T4h, compared to vehicle treated animals; for production of IL-1β (result in words): summary statement
Procedure: Female C57BL/6 mice are injected intravenously with 5 mg/kg lipopolysaccaride (LPS) (E. coli 0111:B4) at T0; this induces production of the cytokine interleukin-1β. After 3.75 hours from the administration of LPS, the mice are injected intravenously with either vehicle or a test compound. The mice are bled at T4h and plasma analyzed for IL-1β by ELISA. The vehicle is 5% DMSO/20% Trappsol/3% Dextrose/NMDG.

[6] = biological target: T2, ICE; experiment: ICE colorimetric dose-response (IC50) assay; type: biochemical; conditions: about 24 nM ICE, 60 minutes preincubation, 50 µM Ac-Tyr-Val-Ala-Asp-pNA; read-out: 2. ICE IC50
Procedure: Diluted inhibitor stocks are prepared by two-fold serial dilution from a primary stock whose concentration is selected (based on screening results or on prior attempts at IC50 evaluation) to achieve approximately 95% inhibition in the most concentrated well. Aliquots of each dilution are transferred to a microtitre plate in triplicate.
ICE enzyme is diluted to approximately 24 nM in HGE buffer (100 mM Hepes pH 7.5, 0.5 mM EDTA, 20% glycerol, 0.1% Bovine Serum Albumin (BSA), and activated by adding dithiothreitol (DTT) to a final concentration of 5 mM. The activated enzyme is then aliquoted into wells containing inhibitor or vehicle, and the plate is preincubated for 60 minutes at ambient temperature. Substrate (Ac-Tyr-Val-Ala-Asp-pNA) is added to each well to a final concentration of 50 µM, and plates are placed in the microtitre plate-reader thermostated to 25°°C. Beginning 5 minutes after addition of substrate, absorbance (405 nm) of wells is monitored for 1 hour, and activity is calculated as the mean rate of change in absorbance during this interval.

[7] = test system: focal cerebral ischemia; experiment: Ischemic brain damage model: permanent (MCAOp) and transient (MCAOt) focal cerebral ischemia; type: in vivo, CD-1 mice
Procedure: Compound 1 is tested in both permanent (MCAOp) and transient (MCAOt) models of focal cerebral ischemia in the mouse. The middle cerebral artery is occluded by an intraluminal suture in CD-1 mice. In the transient model, the suture is withdrawn after 1 hour and in both studies, mice are sacrificed at 24 hours, and brain lesion size is determined from H and E stained sections. Drug or vehicle is administered IP at -5, 60, and 180 minutes from the time of vessel occlusion at doses of 25 and 50 mg/kg × 3 (MCAOp) or 50 mg/kg × 3 (MCAOt). In the more severe MCAOp, there is a small reduction in lesion size (13%, p <0.04, one-tailed t-test) at the high dose whereas, in the less severe MCAOt, the lesion size is 60% smaller in the drug treated mice (p <0.002).

With `O=C(O)CC(NC(=O)Cn1c(-c2ccc(F)cc2)ncc(NC(=O)OCc2ccccc2)c1=O)C(=O)COc1cc(C(F)(F)F)nn1-c1ccccc1` (centres unmarked) [Compound 2, reference compound] the IC50 [1] was 0.005 µM, the “Mode of Inhib.” value [2] was “irreversible” and the IC50 [3] was 2.2 µM. The “% Loss (percent loss of hemisphere weight)” value [4] was 20.8%, the “extent of exitotoxic brain damage in rat pups (result in words)” value [4] was “not seen” and the “inhibition of IL-1β production” value [5] was 11%. The “production of IL-1β (result in words)” value [5] was “inactive” and the IC50 [6] was 0.004 µM.
In the case of `O=CC(CC(=O)O)NC(=O)Cn1c(-c2ccc(F)cc2)ncc(NC(=O)OCc2ccccc2)c1=O` [Compound 1, N-[2-(5-benzyloxycarbonyl-amino-6-oxo-2-(4-fluorophenyl)-1,6-dihydro-1-pyrimidinyl)acetoxyl]-L-aspartic acid aldehyde], the IC50 [1] is reported as 9.8 µM, the “reduction in lesion size” value ([7]; MCAOp (permanent), high dose 50 mg/kg × 3 IP at -5, 60, 180 minutes, 24 hours) is reported as 13% and the “lesion size smaller in drug treated mice” value ([7]; MCAOt (transient, suture withdrawn after 1 hour), 50 mg/kg × 3 IP, 24 hours) is reported as 60%. For the same compound, the “arterial lesion size in ischemic brain damage (result in words)” value ([7]; mice, middle cerebral artery occlusion after reperfusion, summary statement) was “reduced arterial lesion size”, the “Mode of Inhib.” value [2] was “reversible” and the Ki ([2]; 0.24 nM ICE, 15 µM Ac-Tyr-Val-Ala-Asp-AMC, reversible competitive model, read-out: 1. ICE Ki) was 0.06 µM. The IC50 [3] was 1.8 µM, the “% Loss (percent loss of hemisphere weight)” value [4] was 16.1% and the “extent of exitotoxic brain damage in rat pups (result in words)” value [4] was “significantly reduces”. For the same compound, the “inhibition of IL-1β production” value [5] was 48%, the “production of IL-1β (result in words)” value [5] was “significantly blocks” and the IC50 [6] was 0.485 µM.
